Experimental data taken from patent US11247998B2, “Piperazine heteroaryl derivative, preparation method therefor and use of same in medicine” (priority 2017, dated 2022).
Like-named read-outs stand apart in the source and are kept apart here.

How the values were obtained:
[1] = test system: HBV DNA replication in HepG2.2.15 cells; experiment: In vitro anti-HBV activity test (quantitative assay of intracellular HBV DNA), HepG2.2.15 cells, quantitative PCR; assay type: cell-based, hepatitis B virus (HBV); conditions: HBV DNA by quantitative PCR; for EC50: compound treatment Day 2 to Day 8; for Emax: read-out: Emax (effect value of the compound to maximally inhibit HBV DNA replication)
Protocol: In vitro anti-HBV activity test of the compound of the present invention (quantitative assay of intracellular HBV DNA)
HepG2.2.15 cell is a stable expression cell line that has integrated HBV genome.
Virus particles containing HBV DNA can be synthesized by replication, transcription and encapsidation in the cells, and then secreted. In this study, the quantitative analysis of HBV DNA produced by HepG2.2.15 in vitro proliferation was carried out by quantitative PCR method, thereby determining the activity of the compound of the present invention on inhibiting the HBV DNA replication by inhibiting the assembly of HBV capsid protein.
HepG2.2.15 cells were cultured in DMEM/high glucose medium (10% FBS, […] G418) and passaged every three days. On the day of the experiment, a cell suspension was prepared with fresh cell culture medium, and incubated in a 96-well plate (Corning, #3599) at 40,000 cells/well, at 5% carbon dioxide, 37° C. On Day 2, the compound was dissolved in pure DMSO at a concentration of 20 mM, and then the first concentration of 2 mM was formulated with DMSO, and diluted in 4-fold concentration gradient to 8 concentrations. A control well was added with 90 μl of DMSO. The compound solution was diluted 200-fold with DMEM/high glucose medium. The cell culture plate inoculated on Day 1 was taken out. The medium in the wells was removed by a negative pressure suction device, and the formulated medium containing the compound at each concentration was added respectively to each well at 200 μl/well. The plate was incubated at 37° C. for 72 hours. On Day 5, the medium of the cultured cells was replaced with fresh medium containing the same compound in the same way as Day 2, and then the plate was incubated at 37° C. for 72 hours. On Day 8, the cell culture plate was taken out, centrifuged at 300 g for 3 minutes, and the culture supernatant was collected at 200 μl/well. HBV DNA was extracted from the cell culture supernatant with Qiagen automatic DNA extraction device, and the specific method referred to the instructions of the reagents and instruments. Finally, the extracted DNA was eluted with DNA elution buffer at 100 μl/well. The extracted DNA was subjected to quantitative PCR analysis of HBV DNA using Hepatitis B virus nucleic acid quantitative detection kit (Triplex International Biosciences Co., Ltd.), and the specific method referred to the instruction of the kit. The quantitative standard curve was obtained with the standard sample provided in the kit, and the experiments were performed in parallel. Quantitative conversion of each sample was carried out according to the standard curve. Finally, the EC50 value of the compound was calculated with Graphpad Prism software according to each concentration of the compound and the corresponding DNA value.
The in vitro activity of the compound of the present invention on inhibiting the HBV DNA replication by inhibiting the assembly of HBV capsid protein was determined by the above experiment.

[2] = test system: HepG2 cells; experiment: Effect on in vitro proliferation of HepG2 cells (CellTiter-Glo); assay type: cell-based
Protocol: (§1) Test Example 2. Effect of the Compound of the Present Invention on In Vitro Proliferation of HepG2 Cells
(§2) HepG2 cells in logarithmic growth phase were taken and digested with trypsin to prepare a cell suspension, which was incubated in a 96-well plate (transparent bottom white 96-well plate, PerkinElmer) at 6,000 cells/well, at 5% carbon dioxide, 37° C. for 16-20 hours. On Day 2, the compound was dissolved in pure DMSO at a concentration of 20 mM. The compound was diluted in 3-fold concentration gradient using an automatic pipetting station (Bravo), 8 concentration points for each compound, and the control well was DMSO. The compound formulated in DMSO at each concentration point was diluted 200-fold with EMEM (containing 10% FBS) medium. The cell culture plate inoculated on Day 1 was taken out. The medium in the wells was removed by a negative pressure suction device, and the formulated medium containing the compound at each concentration was added respectively to each well at 100 μl/well. The plate was incubated at 37° C. for 72 hours. On Day 5, the 96-well cell culture plate was taken out, and freshly formulated CellTiter Glo was added to each well at 100 μl/well. The 96-well plate was left to stand for 5-10 minutes, the bottom was then sealed with a white bottom sealing film (PerkinElmer). The plate was placed in the microplate reader to measure the luminescence signal. The CC50 value of the compound was calculated with Graphpad Prism software according to each concentration of the compound and the corresponding proliferation inhibition signal value.
(§3) The inhibition effect of the compound of the present invention on in vitro proliferation of HepG2 cells was determined by the above experiment.

[3] = Pharmacokinetics assay in rats after intragastrical administration (LC/MS/MS of plasma); assay type: in vivo; conditions: SD rats, 2 mg/kg; for Vd/F / AUC / bioavailability / CL/F / half-life / Cmax / MRT: both sexes, rat, plasma, po; for Vd/F: read-out: Apparent distribution volume Vz/F; for AUC: read-out: Area under curve AUC; for bioavailability: read-out: Bioavailability (%) F %; for CL/F: read-out: Clearance CLz/F; for half-life: read-out: Half-life T1/2 (converted); for Cmax: read-out: Plasma concentration Cmax; for MRT: read-out: Residence time MRT
Protocol: Pharmacokinetics assay of the compound of the present invention
Rats were used as test animals. The drug concentration in plasma at different time points was determined by LC/MS/MS method after intragastrical administration of the compound of Example 1, the compound of Example 2, the compound of Example 4, the compound of Example 6, the compound of Example 7, the compound of Example 11, the compound of Example 39, the compound of Example 42, the compound of Example 44, the compound of Example 45 and the compound of Example 47 to rats. The pharmacokinetic behavior and property of the compound of the present invention were studied and evaluated in rats.
44 Healthy adult SD rats (half male and half female, 4 rats/group) were purchased from Shanghai Jiesijie Laboratory Animal Co., LTD, with Certificate No.: SCXK (Shanghai) 2013-0006.
A certain amount of the test compound was weighed, and added with 5% by volume of DMSO, 5% by volume of tween 80 and 90% by volume of normal saline to prepare a 0.2 mg/mL colorless, clear and transparent solution.
After an overnight fast, SD rats were administrated intragastrically with the test compound at an administration dose of 2.0 mg/kg and an administration volume of 10.0 mL/kg.
The rats were intragastrically administrated the compound of Example 1, the compound of Example 2, the compound of Example 4, the compound of Example 6, the compound of Example 7, the compound of Example 11, the compound of Example 39, the compound of Example 42, the compound of Example 44, the compound of Example 45 and the compound of Example 47. 0.1 ml of blood was taken from the orbit before administration and at 0.5, 1.0, 2.0, 4.0, 6.0, 8.0, 11.0 and 24.0 hours after administration. The samples were stored in heparinized tubes, and centrifuged for 10 minutes at 3500 rpm to separate the blood plasma. The plasma samples were stored at −20° C. The rats were fed two hours after administration.
The content of the test compound in the plasma of rats after intragastrical administration of the test compound at different concentrations was determined: 25 μL of rat plasma at each time after administration was taken, added with 40 μL of the internal standard solution of camptothecin (100 ng/mL) and 200 μL of acetonitrile, vortex-mixed for 5 minutes, and centrifuged for 10 minutes (4000 rpm). 0.2 μL of the supernatant was taken from the plasma samples for LC/MS/MS analysis.

[4] = Effect on in vitro proliferation of HepG2 cells (CellTiter-Glo); assay type: cell-based; conditions: human; HepG2 cells, 72 hours, CellTiter-Glo
Protocol: as §1, §2, §3

[5] = HepG2 cells, 72 hours, CellTiter-Glo, read-out: CC50

SMILES	Emax (effect value of the compound to maximally inhibit HBV DNA replication) [1]	EC50 [1]	CC50 [2, 5]	Area under curve AUC [3]	Bioavailability (%) F % [3]	Clearance CLz/F [3]	Half-life T1/2 [3]	Plasma concentration Cmax [3]	Residence time MRT [3]	CC50 [2]	EC50 ([1]; Hepatitis B virus)	Emax ([1]; Hepatitis B virus)	CC50 at 72 h [4]	Vd/F [3]	AUC [3]	bioavailability [3]	CL/F [3]	half-life [3]	Cmax [3]	MRT [3]
C[C@H]1Cn2nnc(C(=O)N[C@H](C)C(F)(F)F)c2CN1C(=O)Nc1ccc(F)c(F)c1 [Example 39, (S)—N^5-(3,4-Difluorophenyl)-6-methyl-N^3-((R)-1,1,1-trifluoropropan-2-yl)-6,7-dihydro-[1,2,3]triazolo[1,5-α]pyrazine-3,5(4H)-dicarboxamide]	100%	0.019 µM	> 100 µM	8105 ± 1585 ng·h/mL	114%	4.21 ± 0.69 mL/min/kg	6.49 ± 1.71 h	682 ± 168 ng/mL	9.82 ± 1.75 h	–	–	–	–	–	–	–	–	–	–	–
C[C@H](NC(=O)c1nnn2c1CN(C(=O)Nc1ccc(F)c(F)c1)[C@@H](C)C2)C(F)(F)F [Example 43, (S)—N^5-(3,4-Difluorophenyl)-6-methyl-N^3—((S)-1,1,1-trifluoropropan-2-yl)-6,7-dihydro-[1,2,3]triazolo[1,5-α]pyrazine-3,5(4-)-dicarboxamide]	99%	0.039 µM	–	–	–	–	–	–	–	> 100 µM	–	–	–	–	–	–	–	–	–	–
C[C@@H]1CN(C(=O)Nc2ccc(F)c(C#N)c2)Cc2c(C(=O)N[C@H](C)C(F)(F)F)nnn21 [Example 44, (R)—N^5-(3-Cyano-4-fluorophenyl)-7-methyl-N^3-((R)-1,1,1-trifluoropropan-2-yl)-6,7-dihydro-[1,2,3]triazolo[1,5-α]pyrazine-3,5(4H)-dicarboxamide]	–	–	–	–	–	–	–	–	–	–	0.06 µM	99%	> 100 µM	4.13 ± 0.26 L/kg	11800 ± 3100 ng·h/mL	94%	2.99 ± 0.78 mL/min/kg	17 ± 5.05 h	509 ± 39.4 ng/mL	24.2 ± 7.38 h
C[C@H]1Cn2nnc(C(=O)N[C@H](C)C(F)(F)F)c2CN1C(=O)Nc1ccc(F)c(C#N)c1 [Example 45, (S)—N^5-(3-Cyano-4-fluorophenyl)-6-methyl-N^3-((R)-1,1,1-trifluoropropan-2-yl)-6,7-dihydro-[1,2,3]triazolo[1,5-α]pyrazine-3,5(4H)-dicarboxamide]	102%	0.038 µM	> 100 µM	17162 ± 5791 ng·h/mL	110%	2.13 ± 0.73 mL/min/kg	19.2 ± 7.16 h	715 ± 187 ng/mL	27.4 ± 9.5 h	–	–	–	–	–	–	–	–	–	–	–
C[C@@H]1CN(C(=O)Nc2ccc(F)c(C#N)c2)Cc2c(C(=O)N[C@H](C)C(F)(F)F)ncn21 [Example 47, (R)—N^7-(3-Cyano-4-fluorophenyl)-5-methyl-N^1-((R)-1,1,1-trifluoropropan-2-yl)-5,6-dihydroimidazo[1,5-α]pyrazine-1,7(8H)-dicarboxamide]	–	–	–	–	–	–	–	–	–	–	0.082 µM	100%	> 100 µM	5.69 ± 2.24 L/kg	7260 ± 3050 ng·h/mL	125%	5.4 ± 2.69 mL/min/kg	13.1 ± 4.3 h	462 ± 94 ng/mL	17.7 ± 6.3 h
